Test results reported in PMC6470589, “Contribution of Molecular Structure to Self-Assembling and Biological Properties of Bifunctional Lipid-Like 4-(N-Alkylpyridinium)-1,4-Dihydropyridines” (Pharmaceutics, 2019).
Values joined by “and” are separate entries in the source; they are usually repeats but may differ in a detail not shown here. Equal values may be shown once. “Also recorded” adds a separate entry of the source.

What was measured:
[1] = test system: HT-1080 (human connective tissue fibrosarcoma) cells; assay: MTT cytotoxicity assay on HT-1080 tumor cells, 72 h; format: cell-based; settings: MTT, 72 h; ne = no effect in the tested concentration (up to 100 μg/mL)
Experimental: (§1) Tumor cell lines HT-1080 (human connective tissue fibrosarcoma) and MH-22A (mouse hepatocarcinoma) were used. All of the cells were obtained from the American Type Culture Collection ((ATCC,) Rockville, MD, USA). HT-1080 and MH-22A cells (4 × 10^4 cell/mL) were seeded in 96-well plates in Dulbecco’s modified Eagle’s medium (DMEM) containing 10% fetal bovine serum and cultivated for 72 h at 37 °C, 5% CO2 by exposure to different compounds concentrations (100 μg/mL, 25 μg/mL, 6.25 μg/mL, and 1.56 μg/mL). Cell viability was measured using 3-(4,5-dimethylthiazol-2-yl)-2,5-diphenyl-tetrazolium bromide (MTT) assay. In brief, after incubating with compounds, the culture medium was removed and fresh medium with 0.2 mg/mL MTT was added in each well of the plate. After incubation (3 h, 37 °C, 5% CO2), the medium with MTT was removed, and 200 μL of DMSO was added at once to each sample. The samples were tested at 540 nm on a Tecan multiplate reader Infinite1000 (Tecan Austria GmbH, Salzburg, Austria). The IC50 was calculated using the program Graph Pad Prism® 3.0.

[2] = test system: MH-22A (mouse hepatocarcinoma) cells; assay: MTT cytotoxicity assay on MH-22A tumor cells, 72 h; format: cell-based; settings: MTT, 72 h; ne = no effect in the tested concentration (up to 100 μg/mL)
Experimental: as §1

[3] = Self-assembling properties by dynamic light scattering (DLS); format: physicochemical; settings: for PDI ± SD, 1 Set: freshly prepared samples; for Zeta-Pot ± SD: freshly prepared samples in water, 0.5 mg/mL (1–7), 0.25 mg/mL (8–10), 0.1 mg/mL (11); for PDI ± SD, 2 Set: two weeks after the first set, samples stored at r.t.; for Stability of nanoparticles: two weeks of storage at r.t., DLS
Experimental: Samples of compounds for dynamic light scattering (DLS) studies were prepared by thin-film hydration method in an aqueous solution at a concentration of 0.5 mg/mL for compounds 1–7, 0.25 mg/mL for compounds 8–10, and 0.1 mg/mL for compound 11. A corresponding amount of compounds was weighted in a round-bottom flask and dissolved in chloroform; then, the organic solvent was removed in vacuo, and the residue was dried in high vacuo for 1 h. An appropriate amount of deionised water was added to each flask for the preparation of stock solutions with the above-mentioned concentrations. Samples were prepared by sonication using a bath-type sonicator (Cole Parmer Ultrasonic Cleaner 8891CPX (Vernon Hills, IL, USA)). Samples were sonicated for 60 min at 50 °C.
The DLS measurements of the nanoparticles in an aqueous solution were carried out on a Zetasizer Nano ZSP (Malvern Panalytical Ltd., Malvern, UK) instrument with Malvern Instruments Ltd. Software 7.12, using the following specifications—medium: water; refractive index: 1.33; viscosity: 0.8872 cP; temperature: 25 °C; dielectric constant: 78.5; nanoparticles: liposomes; refractive index of materials: 1.60; detection angle: 173°; wavelength: 633 nm. Data were analysed using the multimodal number distribution software that was included with the instrument. The measurements were performed in triplicate in order to check their reproducibility.

[4] = MTT cytotoxicity assay on HT-1080 tumor cells, 72 h; format: cell-based, human; settings: human, HT-1080 fibrosarcoma cells, MTT, 72 h; ne = no effect in the tested concentration (up to 100 μg/mL); read-out: Cytotoxicity IC50, HT-1080
Experimental: as §1

[5] = MTT cytotoxicity assay on MH-22A tumor cells, 72 h; format: cell-based, mouse; settings: mouse, MH-22A hepatocarcinoma cells, MTT, 72 h; ne = no effect in the tested concentration (up to 100 μg/mL); read-out: Cytotoxicity IC50, MH-22A
Experimental: as §1

[6] = test system: NIH 3T3 (Mouse Swiss Albino embryo fibroblast) cells; assay: Basal cytotoxicity test (neutral red uptake) with estimation of LD50 from IC50; format: cell-based; settings: category by estimated LD50 (mg/kg)
Experimental: The neutral red uptake (NRU) assay was performed according to the standard protocol of Stokes modified by NICEATM-ECVAM validation study. The NRU cytotoxicity assay procedure was based on the ability of viable cells to incorporate and bind neutral red, which is a supravital dye.
NIH 3T3 (Mouse Swiss Albino embryo fibroblast) cells (9000 cells/well) were placed into 96-well plates for 24 h in DMEM medium containing 5% fetal bovine serum (FBS). Then, they were exposed to the test compound over a range of seven concentrations (1000 μg/mL, 316 μg/mL, 100 μg/mL, 31 μg/mL, 10 μg/mL, 3.0 μg/mL, and 1.0 μg/mL) for 24 h. Untreated cells were used as a control. After 24 h, the medium was removed from all plates. Then, 250 μL of neutral red (NR) solution was added (0.05 mg/mL NR in DMEM 24 h pre-incubated at 37 °C and then filtered before use through a 0.22-µm syringe filter). Plates were incubated for 3 h, and then, cells were washed three times with phosphate buffered saline (PBS). The dye within viable cells was released by extraction with a mixture of acetic acid, ethanol, and water (1:50:49). The absorbance of neutral red was measured using a spectrophotometer multiplate reader Infinite M1000 (Tecan Austria GmbH, Salzburg, Austria) at 540 nm. The optical density (OD) was calculated using the formula: OD (treated cells) × 100/OD (control cells). The IC50 values were calculated using the program Graph Pad Prism® 3.0.
Data from the in vitro tests were used for estimating the starting dose for acute oral systemic toxicity tests in rodent. The in vivo starting dose is an estimated LD50 value that is calculated by inserting the in vitro IC50 value into a regression formula: log LD50 (mM/kg) = 0.439 log IC50 (mM) + 0.621 [29]. The value is recalculated to mg/kg, and compounds are evaluated in accordance with four toxicity categories: category 1: LD50 ≤ 5 mg/kg (highly toxic); category 2: 5 < LD50 ≤ 50 mg/kg (moderately toxic); category 3: 50 < LD50 ≤ 300 mg/kg (slightly toxic); category 4: 300 < LD50 ≤ 2000 mg/kg (practically non-toxic). Using an alternative in vitro method enables comparing the possible toxicity of new compounds and selecting compounds for further study, which will vastly reduce the number of animal experiments.

[7] = test system: Bacillus subtilis subsp. spizizenii; assay: Toxicity screen, serial dilution-spot test; format: cell-based; settings: gram positive; 24 h exposure in DI water, 28 °C; 0.0001 = no colonies at 0.001 mM;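 note: last dilution that did not fully inhibit growth with colonies still present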
Experimental: (§2) An estimation of the toxicity of 4-(N-alkylpyridinium)-1,4-DHP derivatives 3, 6, 7, and 9–11 was performed using six prokaryotic (bacteria) and one eukaryotic (yeast) microorganism species according to the procedure elaborated by Suppi et al.. The microorganisms used in the study and their origin were: Bacillus subtilis subsp. spizizenii (ATCC® 6633™*, Microbiologics®, St Cloud, MN, USA), Escherichia coli (ATCC® 8739, Microbiologics®), Klebsiella pneumoniae (Latvian Microorganisms strain collection, LMKK, strain number 535, Riga, Latvia), Micrococcus luteus (LMKK, No. 25), Pseudomonas aeruginosa (NCTC 12924, Biosciences Ltd., Dublin, Ireland), Proteus mirabilis (LMKK, No 590), and Saccharomyces cerevisiae, CEN.PK2 strain [32].
(§3) Bacteria and yeast cultures were cultivated until their exponential growth phase (optical density max 1); then, 100 µL of cell suspension was taken, washed in deionised (DI) water, and added to serially diluted samples of corresponding 4-(N-alkylpyridinium)-1,4-DHPs in DI water. All 1,4-DHPs were tested in five serially diluted concentrations (10 mM, 1 mM, 0.1 mM, 0.01 mM, and 0.001 mM). Test organisms were exposed to 1,4-DHP derivatives in DI water on 96-well microplates (Corning, Corning, NY, USA) at 28 °C for 24 h without shaking in the dark. Then, a 5 µL sample was taken from each well and spotted on yeast extract, bactopeptone, dextrose broth (YPD) (yeast extract 1%, bactopeptone 2%, glucose 2% and agar 2%) plates to test the growth of yeasts and lysogeny broth (LB) (yeast extract 0.5%, bactopeptone 1%, NaCl 0.5% and agar 2%) to test the growth for bacteria. Plates were left in 30 °C for 24 h, and assessed for microbial growth.
(§4) If there were no colonies after incubation with 1,4-DHPs in the last concentration of (0.001 mM), then their boundary concentration was set to 0.0001 mM or 0.1 µM.

[8] = test system: Escherichia coli; assay: Toxicity screen, serial dilution-spot test; format: cell-based; settings: gram negative; 24 h exposure in DI water, 28 °C; 0.0001 = no colonies at 0.001 mM;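 note: last dilution that did not fully inhibit growth with colonies still present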
Experimental: as §2, §3, §4

[9] = test system: Klebsiella pneumoniae; assay: Toxicity screen, serial dilution-spot test; format: cell-based; settings: gram negative; 24 h exposure in DI water, 28 °C; 0.0001 = no colonies at 0.001 mM;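 note: last dilution that did not fully inhibit growth with colonies still present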
Experimental: as §2, §3, §4

[10] = test system: Micrococcus luteus; assay: Toxicity screen, serial dilution-spot test; format: cell-based; settings: gram positive; 24 h exposure in DI water, 28 °C; 0.0001 = no colonies at 0.001 mM;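 note: last dilution that did not fully inhibit growth with colonies still present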
Experimental: as §2, §3, §4

[11] = test system: Proteus mirabilis; assay: Toxicity screen, serial dilution-spot test; format: cell-based; settings: gram negative; 24 h exposure in DI water, 28 °C; 0.0001 = no colonies at 0.001 mM;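 note: last dilution that did not fully inhibit growth with colonies still present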
Experimental: as §2, §3, §4

[12] = test system: Pseudomonas aeruginosa; assay: Toxicity screen, serial dilution-spot test; format: cell-based; settings: gram negative; 24 h exposure in DI water, 28 °C; 0.0001 = no colonies at 0.001 mM;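 note: last dilution that did not fully inhibit growth with colonies still present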
Experimental: as §2, §3, §4

[13] = test system: Saccharomyces cerevisiae, CEN.PK2 strain; assay: Toxicity screen, serial dilution-spot test; format: cell-based; settings: yeast; 24 h exposure in DI water, 28 °C; 0.0001 = no colonies at 0.001 mM;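 note: last dilution that did not fully inhibit growth with colonies still present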
Experimental: as §2, §3, §4

[14] = test system: six prokaryotic (bacteria) and one eukaryotic (yeast) microorganism species; assay: Toxicity screen, whole panel of microorganisms; format: cell-based; settings: concentrations tested 10 to 0.001 mM
Experimental: as §2, §3, §4

[15] = Determination of critical aggregation concentration (CAC) by DLS; format: physicochemical; settings: aqueous media
Experimental: The critical aggregation concentrations (CAC) of 4-(N-alkylpyridinium)-1,4-DHP derivatives were determined in aqueous media using a Zetasizer Nano S90 (Malvern Panalytical Ltd., Malvern, UK) instrument with Malvern Instruments Ltd. Software according to procedure described by Topel et al. and modified by our group. Briefly, as stock solutions of tested compounds were used, samples were prepared for self-assembling experiments. All of the subsequent samples were prepared starting from the concentrated stock solution, which was subjected to a serial two-fold dilution each time with water. The intensity values of scattered light (kcps) as a function of concentration of amphiphiles were analysed. The scattering intensities detected for amphiphile concentrations below CAC have an approximately constant value corresponding to water. The intensity starts to show a linear increase with concentration at the CAC, since the amount of nanoparticles increases in the solution. The intersection of the best-fit lines drawn through the data points is the preliminary CAC value of the compounds.

SMILES | Cytotoxicity IC50, HT-1080 [1] | Cytotoxicity IC50, MH-22A [2] | PDI ± SD, 1 Set [3] | Zeta-Pot ± SD [3] | PDI ± SD, 2 Set [3] | Stability of nanoparticles [3] | IC50 at 72 h [4] | IC50 at 72 h [5] | Toxicity category from estimated LD50 [6] | Boundary concentration, B. subtilis [7] | Boundary concentration, E. coli [8] | Boundary concentration, K. pneumoniae [9] | Boundary concentration, M. luteus [10] | Boundary concentration, P. mirabilis [11] | Boundary concentration, P. aeruginosa [12] | Boundary concentration, S. cerevisiae [13] | Effect on survival of microorganisms [14] | CAC [15]
CCOC(=O)C1=C(C)NC(C)=C(C(=O)OCC)C1c1ccc[n+](CC)c1 [Compound 1] | did not demonstrate any cytotoxic effect and ne | did not demonstrate any cytotoxic effect and ne | 0.18 and 0.18 ± 0.01 | −8.43 ± 2.14 mV | 0.40 and 0.40 ± 0.16 | lost their homogeneity after two weeks of storage; also recorded: weak stability |  |  |  |  |  |  |  |  |  |  |  | 
CCCCCC[n+]1cccc(C2C(C(=O)OCC)=C(C)NC(C)=C2C(=O)OCC)c1 [Compound 2] |  |  | 0.50 and 0.50 ± 0.10 | −11.39 ± 1.85 mV | 0.91 ± 0.10 | weak stability | 26 ± 2 µM | 67 ± 4 µM | non-toxic |  |  |  |  |  |  |  |  | 
C#CCN1C(C)=C(C(=O)OCC)C(c2ccc[n+](CC)c2)C(C(=O)OCC)=C1C [Compound 4] | did not demonstrate any cytotoxic effect and ne | did not demonstrate any cytotoxic effect and ne | 0.16 and 0.16 ± 0.02 | −5.47 ± 1.97 mV | 0.41 and 0.41 ± 0.07 | lost their homogeneity after two weeks of storage; also recorded: weak stability |  |  |  |  |  |  |  |  |  |  |  | 
C#CCN1C(C)=C(C(=O)OCC)C(c2ccc[n+](CCCCCC)c2)C(C(=O)OCC)=C1C [Compound 5] |  |  | 0.72 and 0.72 ± 0.32 | −9.96 ± 0.72 mV | 0.59 ± 0.01 | weak stability | 5 ± 0.3 µM | 16 ± 1 µM | non-toxic |  |  |  |  |  |  |  |  | 
C#CCOC(=O)C1=C(C)NC(C)=C(C(=O)OCC#C)C1c1ccc[n+](CCCCCC)c1 [Compound 8] |  |  | 0.60 and 0.60 ± 0.06 |  | 0.45 ± 0.05 |  | 76 ± 8 µM | 80 ± 5 µM | non-toxic |  |  |  |  |  |  |  |  | 
C#CCN1C(C)=C(C(=O)OCC)C(c2ccc[n+](CCCCCCCCCCCCCCCC)c2)C(C(=O)OCC)=C1C [Compound 11] |  |  | 0.37 and 0.37 ± 0.03 |  | 0.33 and 0.33 ± 0.03 | stable after two weeks of storage; also recorded: confirmed the stability of nanoparticles |  |  |  | 0.0001 mM | 0.01 mM | 10 mM | 0.001 mM | 0.0001 mM | 0.01 mM | 0.0001 mM | toxic at various degrees | 7.6 µM
